This is an account of results in publication PMC10599528, “GPC-100, a novel CXCR4 antagonist, improves in vivo hematopoietic cell mobilization when combined with propranolol” (PLOS ONE, 2023).

One assay concerns CXCR4 and β2AR. The experiment in a line: Calcium flux in MDA-MB-231 cells endogenously expressing CXCR4 and β2AR, CXCL12 plus epinephrine. The assay is classed as cell-based. To be noted: 10 μM of each antagonist; 200 nM CXCL12, 10 μM epinephrine. The protocol: MDA-MB-231 cells endogenously expressing CXCR4 and β2AR, or transduced with adenoviruses encoding CXCR4 for overexpression were used for calcium flux. Cells were cultured for 2 days prior to running the assay and seeded at 8×10^4 cells/well in a 96-well black clear-bottom microplate. The following day, cells were stained with Cal-520 AM (AAT Bioquest) for 2 h at 37°C and treated with antagonists for 30 min followed by agonist stimulation. Intracellular calcium flux was measured using a Flexstation 3 microplate reader (Molecular Devices).
Background: Calcium assays in cells follow changes in intracellular calcium, usually with a dye or a luminescent sensor.

The subject of assay [1] is circulating WBCs. The experiment in a line: In vivo WBC mobilization to peripheral blood (CBC analysis). More on the design: species or system C57BL/6J mice.
Procedure: Studies were performed at a facility accredited by the Association for Assessment and Accreditation of Laboratory Animal Care and in strict accordance with the recommendations in the Guide for the Care and Use of Laboratory Animals of the National Institute of Health. […] C57BL/6J mice (female, 6–9 weeks old) were ordered from Jackson Laboratories and allowed to habituate for one week before handling. They were housed 5 per cage and had free access to food and water.
Mice were monitored daily and weighed prior to drug administration. Based on the body weight data, mice were randomized into groups using the randomization tool in Benchling Studies randomization software. PB was collected by submental bleeding (non-terminal) or cardiac puncture (terminal). For terminal blood collections, mice were placed in an induction chamber with 2.5–4% isoflurane and then a maintenance dose of 2–3% through a nose cone. A toe pinch on all four quadrants was applied to confirm the surgical plane of anesthesia. Upon completion of terminal blood collection from cardiac puncture, the mice were euthanized via cervical dislocation while still under the effects of isoflurane. Approximately 25 μL blood was used for CBC analysis and the remaining blood was processed for flow cytometry or colony forming unit (CFU) assay. For non-terminal submental bleeding, a 4mm lancet was used to puncture the linguofacialis vein under the chin. […] For the time-course of mobilization, each mouse was bled twice. Submental bleeding was performed at 0.5 h, 1 h or 2 h after the respective dosing and cardiac puncture was performed at 3 h, 4 h and 6 h post-dose.
Blood samples were processed for complete blood count (CBC) analysis using the Abaxis VetScan HM5 hematology analyzer (Abaxis), which reports 18-parameters including WBC, lymphocytes, neutrophils, monocytes, platelets, hemoglobin, RBC and morphology.
Assay [2] deals with circulating WBCs. The note with it: mice, 5 mg/kg SC; cited from earlier work.
A further assay has as its system U937 cells. The experiment in a line: CXCL12-mediated transwell migration of U937 cells. The note with it: Homo sapiens, U-937, 24 h, read-out: IC50, blockade of CXCL12-mediated migration.
In a further assay the test system is MM.1S cells. The assay can be described thus: CXCL12-induced transwell migration of MM.1S cells. The note with it: Homo sapiens, MM1.S, 4 h, read-out: IC50, blockade of CXCL12-induced migration.
Another assay concerns CD34+ cells. To be noted: at least; cited from earlier work.

Like-named read-outs stand apart in the source and are kept apart here.

Procedure for MM.1S cells: (§1) Cells were allowed to migrate toward CXCL12 in the presence or absence of the antagonists for 4 h (MM.1S) or 24 h (U937) at 37°C. The migration of U937 cells was measured using PrestoBlue Cell Viability Reagent (Invitrogen). For MM.1S cell line, the migrated cells were counted by flow cytometry. The fluorescence intensity (560 nm/590 nm excitation/emission) was detected using a Varioskan LUX Multimode Microplate Reader.
MM.1S (A) or U937 (B) cells were
(§2) suspended in serum-free media containing 0.5% BSA at 5X106 cells/ml and 100 μl of cell
(§3) suspension was added to transwell insert. SDF-1/CXCL12 at the indicated concentrations in 800
(§4) μl of serum-free media containing 0.5% BSA was added to the lower chamber of the transwell.
(§5) The transwell insert with 100 μl cell suspension was put on the lower chamber very carefully
(U937) to allow cell migration.
Procedure for U937 cells: as §1
MM.1S (A) or U937 (B) cells were
as §2, §3, §4, §5
(U937) to allow cell migration.

As to `c1cc(CN2CCCNCCNCCCNCC2)ccc1CN1CCCNCCNCCCNCC1` [AMD3100], the “inhibition of synergistic calcium flux induced by CXCL12 and epinephrine” value with CXCR4 and β2AR is given as “partially inhibited”. Also, the “increase in circulating WBCs compared to the vehicle” value in the assay with circulating WBCs [1] (1 hour post-drug, GPC-100 30 mg/kg IV, AMD3100 5 mg/kg SC, single injection) turned out to be 3 fold. The “time of peak mobilization” value in the assay on circulating WBCs [1] (time-course 30 min to 6 hours post-drug, GPC-100 30 mg/kg IV, AMD3100 5 mg/kg SC) is 2 h; in the assay on circulating WBCs [2], 1 h. The IC50 in the assay with U937 cells was 42 nM; in the assay with MM.1S cells, 80 nM.

Consider `CC(C)NCC(O)COc1cccc2ccccc12` (stereo not drawn) [propranolol], for which the “inhibition of synergistic calcium flux induced by CXCL12 and epinephrine” value in the assay on CXCR4 and β2AR was “partially inhibited”.

B1: G-CSF: Granulocyte-colony stimulating factor; recombinant murine G-CSF in the mouse studies (protein, UniProt P09920 31-208, looked up)
Granulocyte …: VPLVTVSALPPSLPLPRSFLLKSLEQVRKIQASGSVLLEQLCATYKLCHPEELVLLGHSLGIPKASLSGCSSQALQQTQCLSQLHSGLCLYQGLLQALSGISPALAPTLDLLQLDVANFATTIWQQMENLGVAPTVQPTQSAMPAFTSAFQRRAGGVLAISYLQGFLETARLALHHLA
Regarding B1, the “increase in WBC mobilization” value with circulating WBCs [1] (G-CSF 0.1 mg/kg SC BID days 2-6, propranolol 20 mg/kg IP 7 days, GPC-100 30 mg/kg IV or AMD3100 5 mg/kg SC day 7) is 4.5 fold. Also, in the assay on CD34+ cells, the “MM patients in whom an optimal number of HSC is not mobilized” value is 40–50%.
